In article PMC11219871, “Epigenetic-based differentiation therapy for Acute Myeloid Leukemia” (Nature Communications, 2024):

Assays:
[1] = target: T1, HDAC6 (Homo sapiens, UniProt Q9UBN7); assay: HDAC enzymatic assay, fluorescence-labeled substrate; format: biochemical; details: for inhibition at 10 µM: source data of Fig. 1B; for IC50: read-out: IC50
T1 sequence (Q9UBN7 1-1215): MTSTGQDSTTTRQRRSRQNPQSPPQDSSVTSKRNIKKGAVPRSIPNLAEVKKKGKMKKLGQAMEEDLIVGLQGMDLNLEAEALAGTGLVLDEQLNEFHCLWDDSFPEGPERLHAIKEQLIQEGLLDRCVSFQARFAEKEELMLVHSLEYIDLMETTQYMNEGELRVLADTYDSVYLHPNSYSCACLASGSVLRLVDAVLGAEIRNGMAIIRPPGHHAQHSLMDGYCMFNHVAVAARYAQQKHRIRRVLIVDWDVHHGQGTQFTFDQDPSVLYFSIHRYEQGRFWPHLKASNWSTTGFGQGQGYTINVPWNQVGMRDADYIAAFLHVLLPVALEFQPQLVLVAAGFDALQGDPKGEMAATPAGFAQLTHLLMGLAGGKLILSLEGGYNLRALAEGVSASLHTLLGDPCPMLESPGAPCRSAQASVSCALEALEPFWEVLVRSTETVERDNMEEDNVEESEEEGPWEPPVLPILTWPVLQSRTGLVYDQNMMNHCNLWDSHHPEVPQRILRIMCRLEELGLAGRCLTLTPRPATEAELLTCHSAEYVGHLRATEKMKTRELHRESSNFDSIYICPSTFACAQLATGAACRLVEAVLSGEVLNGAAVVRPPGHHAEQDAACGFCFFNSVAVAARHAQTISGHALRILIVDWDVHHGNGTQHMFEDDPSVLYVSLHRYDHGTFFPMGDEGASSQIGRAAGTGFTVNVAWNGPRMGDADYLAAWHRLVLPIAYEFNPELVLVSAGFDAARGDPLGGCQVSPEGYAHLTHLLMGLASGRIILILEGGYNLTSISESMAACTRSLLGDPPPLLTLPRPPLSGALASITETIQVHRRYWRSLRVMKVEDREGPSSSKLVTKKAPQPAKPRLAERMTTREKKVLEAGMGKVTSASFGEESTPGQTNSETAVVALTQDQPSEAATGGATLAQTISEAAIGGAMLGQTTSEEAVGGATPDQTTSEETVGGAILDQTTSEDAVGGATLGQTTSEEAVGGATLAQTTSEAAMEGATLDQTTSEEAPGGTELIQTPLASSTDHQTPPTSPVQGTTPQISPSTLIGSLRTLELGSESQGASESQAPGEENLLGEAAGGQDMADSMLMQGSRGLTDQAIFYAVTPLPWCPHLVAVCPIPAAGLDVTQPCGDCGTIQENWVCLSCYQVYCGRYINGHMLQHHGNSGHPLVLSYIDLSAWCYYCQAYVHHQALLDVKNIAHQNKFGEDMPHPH

[2] = tested on: HL-60; assay: CUT&RUN of BRD4, H3K27Ac and H3K9Ac; format: cell-based, human; details: HL-60, 12 h
Description: CUT&RUN was performed with the kit CUTANA ChIC/CUT&RUN (Epicypher, 14-1048) following the manufacturer’s instructions. Briefly, 0.5 million of HL-60 cells were harvested and resuspended in 100ul wash buffer [20 mM HEPES pH 7.5, 150 mM NaCl, 0.5 mM Spermidine, supplemented with Protease Inhibitor EDTA-Free tablet (Roche 11836170001)]. Activated Concanavalin A was incubated with cells at room temperature for 10 min to let the cells bind to the beads. For each target protein factor, 0.5 μg of BRD4 CUTANA CUT&RUN antibody (Cat No 13-2003, Epicypher), Acetyl-Histone H3 (Lys 9) (C5B11) rabbit monoclonal antibody diluted 1:50 (Cat No 9649 T, Cell Signaling) or Acetyl-Histone H3 (Lys 27) (D5E4) XP rabbit monoclonal antibody diluted 1:100 (Cat No 8173T, Cell Signaling) was added to each sample and incubated in the antibody buffer (wash buffer +0.01% Digitonin and 2 mM EDTA) overnight at 4 °C. Isotype control IgG was used as a negative control. The beads were then washed twice with digitonin buffer [wash buffer +0.01% Digitonin] and 2.5 μL pAG-MNase was added to each sample. After ten minutes of incubation at room temperature, excessive pAG-MNase was washed out by a two-time digitonin buffer wash. Then targeted chromatin was digested and released from cells by 2 h of incubation with the presence of 2 mM CaCl2 at 4 °C. After incubation with stop buffer [340 mM NaCl, 20 mM EDTA, 4 mM EGTA, 50 μg/mL RNase A, 50 μg/mL Glycogen] for 10 min at 37 °C the supernatant containing CUT&RUN-enriched DNA was purified using the CUTANA DNA Purification kit (Epicypher). Finally, Illumina sequencing libraries were prepared from 6 ng of purified CUT&RUN DNA using NEBNext UltraTM II DNA Library Prep Kit for Illumina, following the manufacturer’s instructions. For BRD4, some modifications were added following the protocol of Nan Liu (Harvard University; 10.17504/protocols.io.wvgfe3w). Libraries were sequenced using NEXTseq500 (Illumina).
The Cut&Run samples were analyzed using the CUT&RUN tools pipeline with default settings and no filtering for 120 bp fragments. Peak calling was performed on deduplicated reads with macs2 version 2.2.6 using the respective IgG samples as control, narrow peak calling and paired-end settings, and a threshold of q = 0.01.
Specifically, 12 chromatin states, based on the combination of 6 histone marks, for 38 AML samples were used[59]. The vast majority of the regions could be entirely annotated to a single chromatin state while some could be entirely annotated to a single chromatin state after the replacement of consecutive chromatin states with similar characteristics with one of them (i.e combination of Transcription Transition / Transcription Elongation / Weak Transcription to Transcription Transition or combination of Heterochromatin; Represesed/ Heterochromatin; Low Signal to Heterochromatin; Repressed etc). The regions that couldn’t be entirely annotated to a single chromatin state or simplified chromatin state were removed. […] We then calculated the percentage of each chromatin state taking into account the width of the regions. As background, we used all the regions of each AML sample and we calculated the percentage of the chromatin states similarly. Finally, we calculated the fold change of each chromatin state as a percentage in the sample to a percentage in the background AML sample.

SMILES | inhibition at 10 µM [1] | IC50 [1] | BRD4 CUT&RUN peaks [2] | H3K9Ac CUT&RUN peaks [2] | H3K27Ac CUT&RUN peaks [2]
COc1cc2nc(-c3ccc(C)o3)cc(NCC3CCN(c4ncc(C(=O)NO)cn4)CC3)c2cc1OC [CM-444, 2-[4-[[[6,7-dimethoxy-2-(5-methyl-2-furyl)-4-quinolyl]amino]methyl]-1-piperidyl]pyrimidine-5-carbohydroxamic acid] | 90% | 531 nM | 19570 | 7568 | 48991
Cc1[nH]c2ccccc2c1CCNCc1ccc(/C=C/C(=O)NO)cc1 [Panobinostat, reference compound] | – | – | 16030 | 32775 | 26959
COc1cc2nc(-c3cc(C)oc3C)cc(NCC3CCN(c4ncc(C(=O)NO)cn4)CC3)c2cc1OC [CM-1758, 2-[4-[[[2-(2,5-dimethyl-3-furyl)-6,7-dimethoxy-4-quinolyl]amino]methyl] -1-piperidyl]pyrimidine-5-carbohydroxamic acid] | 90% | 257 nM | – | – | –
